Results from ChEMBL document CHEMBL3045111, “Synthesis and herbicidal activities of novel 3-(substituted benzyloxy or phenoxy)-6-methyl-4-(3-trifluoromethylphenyl)pyridazine derivatives” (2012).
Calls of active or inactive are those of the source. The rule behind the calls is not given here.

Key:
[1] = system: Brassica rapa subsp. oleifera; test: Post-emergence herbicidal activity against one-leaf stage Brassica rapa subsp. oleifera under greenhouse condition at 150 g /ha measured after 24 days by spray method; type: functional; conditions: 576 h, read-out: GI
[2] = system: Brassica rapa subsp. oleifera; test: Post-emergence herbicidal activity against one-leaf stage Brassica rapa subsp. oleifera under greenhouse condition assessed as complete bleaching of leaves at 75 g /ha measured after 24 days by spray method; type: functional, organism-based
Amaranthus retroflexus [3] = test: Post-emergence herbicidal activity against one-leaf stage Amaranthus retroflexus under greenhouse condition at 300 g /ha measured after 24 days by spray method; type: functional; conditions: 576 h, read-out: GI
Amaranthus retroflexus [4] = test: Post-emergence herbicidal activity against one-leaf stage Amaranthus retroflexus under greenhouse condition at 30 g /ha measured after 24 days by spray method; type: functional; conditions: 576 h, read-out: GI
[5] = system: Brassica rapa subsp. oleifera; test: Post-emergence herbicidal activity against one-leaf stage Brassica rapa subsp. oleifera under greenhouse condition at 60 g /ha measured after 24 days by spray method; type: functional; conditions: 576 h, read-out: GI
[6] = system: Brassica rapa subsp. oleifera; test: Post-emergence herbicidal activity against one-leaf stage Brassica rapa subsp. oleifera under greenhouse condition assessed as complete bleaching of leaves at 60 g /ha measured after 24 days by spray method; type: functional, organism-based
[7] = system: Brassica rapa subsp. oleifera; test: Post-emergence herbicidal activity against one-leaf stage Brassica rapa subsp. oleifera under greenhouse condition assessed as complete bleaching of leaves at 15 g /ha measured after 24 days by spray method; type: functional, organism-based
[8] = system: Brassica rapa subsp. oleifera; test: Post-emergence herbicidal activity against one-leaf stage Brassica rapa subsp. oleifera under greenhouse condition assessed as complete bleaching of leaves at 7.5 g /ha measured after 24 days by spray method; type: functional, organism-based
Echinochloa crus-galli [9] = test: Pre-emergence herbicidal activity against Echinochloa crus-galli (barnyard grass) under greenhouse condition at 750 g /ha measured after 24 days by spray method; type: functional; conditions: 576 h, read-out: GI
[10] = system: Brassica rapa subsp. oleifera; test: Post-emergence herbicidal activity against one-leaf stage Brassica rapa subsp. oleifera under greenhouse condition at 7.5 g /ha measured after 24 days by spray method; type: functional; conditions: 576 h, read-out: GI
Echinochloa crus-galli [11] = test: Post-emergence herbicidal activity against one-leaf stage of Echinochloa crus-galli (barnyard grass) under greenhouse condition at 750 g /ha measured after 24 days by spray method; type: functional; conditions: 576 h, read-out: GI
Amaranthus retroflexus [12] = test: Pre-emergence herbicidal activity against Amaranthus retroflexus under greenhouse condition at 750 g /ha measured after 24 days by spray method; type: functional; conditions: 576 h, read-out: GI
Amaranthus retroflexus [13] = test: Post-emergence herbicidal activity against one-leaf stage Amaranthus retroflexus under greenhouse condition at 15 g /ha measured after 24 days by spray method; type: functional; conditions: 576 h, read-out: GI
Spirodela polyrhiza [14] = test: Bleaching herbicidal activity in Spirodela polyrhiza fronds cultured in compound-containing in medium assessed as chlorophyll inhibition at 10 ug/ml after 7 days; type: functional; conditions: 168 h
Amaranthus retroflexus [15] = test: Post-emergence herbicidal activity against one-leaf stage Amaranthus retroflexus under greenhouse condition assessed as complete bleaching of leaves at 15 g /ha measured after 24 days by spray method; type: functional, organism-based
Amaranthus retroflexus [16] = test: Post-emergence herbicidal activity against one-leaf stage Amaranthus retroflexus under greenhouse condition assessed as complete bleaching of leaves at 7.5 g /ha measured after 24 days by spray method; type: functional, organism-based
Amaranthus retroflexus [17] = test: Post-emergence herbicidal activity against one-leaf stage Amaranthus retroflexus under greenhouse condition at 7.5 g /ha measured after 24 days by spray method; type: functional; conditions: 576 h, read-out: GI
[18] = system: Brassica rapa subsp. oleifera; test: Post-emergence herbicidal activity against one-leaf stage Brassica rapa subsp. oleifera under greenhouse condition assessed as complete bleaching of leaves at 30 g /ha measured after 24 days by spray method; type: functional, organism-based
Amaranthus retroflexus [19] = test: Post-emergence herbicidal activity against one-leaf stage Amaranthus retroflexus under greenhouse condition at 600 g /ha measured after 24 days by spray method; type: functional; conditions: 576 h, read-out: GI
[20] = system: Brassica rapa subsp. oleifera; test: Pre-emergence herbicidal activity against Brassica rapa subsp. oleifera under greenhouse condition at 750 g /ha measured after 24 days by spray method; type: functional; conditions: 576 h, read-out: GI
Amaranthus retroflexus [21] = test: Post-emergence herbicidal activity against one-leaf stage Amaranthus retroflexus under greenhouse condition at 150 g /ha measured after 24 days by spray method; type: functional; conditions: 576 h, read-out: GI
[22] = system: Brassica rapa subsp. oleifera; test: Post-emergence herbicidal activity against one-leaf stage Brassica rapa subsp. oleifera under greenhouse condition at 30 g /ha measured after 24 days by spray method; type: functional; conditions: 576 h, read-out: GI
Digitaria [23] = test: Pre-emergence herbicidal activity against Digitaria adscendens under greenhouse condition at 750 g /ha measured after 24 days by spray method; type: functional; conditions: in Digitaria adscendens, 576 h, read-out: GI
Amaranthus retroflexus [24] = test: Post-emergence herbicidal activity against one-leaf stage Amaranthus retroflexus under greenhouse condition assessed as complete bleaching of leaves at 150 g /ha measured after 24 days by spray method; type: functional, organism-based
Spirodela polyrhiza [25] = test: Bleaching herbicidal activity in Spirodela polyrhiza fronds cultured in compound-containing in medium assessed as chlorophyll inhibition at 1 ug/ml after 7 days; type: functional; conditions: 168 h
Amaranthus retroflexus [26] = test: Post-emergence herbicidal activity against one-leaf stage Amaranthus retroflexus under greenhouse condition assessed as complete bleaching of leaves at 60 g /ha measured after 24 days by spray method; type: functional, organism-based
Amaranthus retroflexus [27] = test: Post-emergence herbicidal activity against one-leaf stage Amaranthus retroflexus under greenhouse condition assessed as complete bleaching of leaves at 300 g /ha measured after 24 days by spray method; type: functional, organism-based
Amaranthus retroflexus [28] = test: Post-emergence herbicidal activity against one-leaf stage Amaranthus retroflexus under greenhouse condition assessed as complete bleaching of leaves at 30 g /ha measured after 24 days by spray method; type: functional, organism-based
[29] = system: Brassica rapa subsp. oleifera; test: Post-emergence herbicidal activity against one-leaf stage Brassica rapa subsp. oleifera under greenhouse condition assessed as complete bleaching of leaves at 300 g /ha measured after 24 days by spray method; type: functional, organism-based
[30] = system: Brassica rapa subsp. oleifera; test: Post-emergence herbicidal activity against one-leaf stage Brassica rapa subsp. oleifera under greenhouse condition at 750 g /ha measured after 24 days by spray method; type: functional; conditions: 576 h, read-out: GI
[31] = system: Brassica rapa subsp. oleifera; test: Post-emergence herbicidal activity against one-leaf stage Brassica rapa subsp. oleifera under greenhouse condition at 15 g /ha measured after 24 days by spray method; type: functional; conditions: 576 h, read-out: GI
Amaranthus retroflexus [32] = test: Post-emergence herbicidal activity against one-leaf stage of Amaranthus retroflexus under greenhouse condition at 750 g /ha measured after 24 days by spray method; type: functional; conditions: 576 h, read-out: GI
Amaranthus retroflexus [33] = test: Post-emergence herbicidal activity against one-leaf stage Amaranthus retroflexus under greenhouse condition at 75 g /ha measured after 24 days by spray method; type: functional; conditions: 576 h, read-out: GI
[34] = system: Brassica rapa subsp. oleifera; test: Post-emergence herbicidal activity against one-leaf stage Brassica rapa subsp. oleifera under greenhouse condition at 75 g /ha measured after 24 days by spray method; type: functional; conditions: 576 h, read-out: GI
[35] = system: Brassica rapa subsp. oleifera; test: Post-emergence herbicidal activity against one-leaf stage Brassica rapa subsp. oleifera under greenhouse condition at 300 g /ha measured after 24 days by spray method; type: functional; conditions: 576 h, read-out: GI
Amaranthus retroflexus [36] = test: Post-emergence herbicidal activity against one-leaf stage Amaranthus retroflexus under greenhouse condition assessed as complete bleaching of leaves at 600 g /ha measured after 24 days by spray method; type: functional, organism-based
Digitaria [37] = test: Post-emergence herbicidal activity against one-leaf stage of Digitaria adscendens under greenhouse condition at 750 g /ha measured after 24 days by spray method; type: functional; conditions: in Digitaria adscendens, 576 h, read-out: GI
Amaranthus retroflexus [38] = test: Post-emergence herbicidal activity against one-leaf stage Amaranthus retroflexus under greenhouse condition at 60 g /ha measured after 24 days by spray method; type: functional; conditions: 576 h, read-out: GI
Amaranthus retroflexus [39] = test: Post-emergence herbicidal activity against one-leaf stage Amaranthus retroflexus under greenhouse condition assessed as complete bleaching of leaves at 75 g /ha measured after 24 days by spray method; type: functional, organism-based
[40] = system: Brassica rapa subsp. oleifera; test: Post-emergence herbicidal activity against one-leaf stage Brassica rapa subsp. oleifera under greenhouse condition at 600 g /ha measured after 24 days by spray method; type: functional; conditions: 576 h, read-out: GI
[41] = system: Brassica rapa subsp. oleifera; test: Post-emergence herbicidal activity against one-leaf stage Brassica rapa subsp. oleifera under greenhouse condition assessed as complete bleaching of leaves at 600 g /ha measured after 24 days by spray method; type: functional, organism-based
[42] = system: Brassica rapa subsp. oleifera; test: Post-emergence herbicidal activity against one-leaf stage Brassica rapa subsp. oleifera under greenhouse condition assessed as complete bleaching of leaves at 150 g /ha measured after 24 days by spray method; type: functional, organism-based

Cc1cc(-c2cccc(C(F)(F)F)c2)c(Oc2ccc(Br)cc2)nn1
inhibition of growth at 150 g/ha [1]: 100%
Activity [2]: Active
inhibition of growth at 300 g/ha (Amaranthus retroflexus [3]): 100%
inhibition of growth at 30 g/ha (Amaranthus retroflexus [4]): 35%
inhibition of growth at 60 g/ha [5]: 100%
Activity [6]: Active
Activity [7]: Active
Activity [8]: Active
inhibition of growth at 750 g/ha (Echinochloa crus-galli [9]): 60%
inhibition of growth at 7.5 g/ha [10]: 68%
inhibition of growth at 750 g/ha (Echinochloa crus-galli [11]): 60%
inhibition of growth at 750 g/ha (Amaranthus retroflexus [12]): 94%
inhibition of growth at 15 g/ha (Amaranthus retroflexus [13]): 28%
inhibition at 10 µg/mL (Spirodela polyrhiza [14]): 90%
Activity (Amaranthus retroflexus [15]): Active
Activity (Amaranthus retroflexus [16]): Active
inhibition of growth at 7.5 g/ha (Amaranthus retroflexus [17]): 25%
Activity [18]: Active
inhibition of growth at 600 g/ha (Amaranthus retroflexus [19]): 100%
inhibition of growth at 750 g/ha [20]: 61%
inhibition of growth at 150 g/ha (Amaranthus retroflexus [21]): 100%
inhibition of growth at 30 g/ha [22]: 100%
inhibition of growth at 750 g/ha (Digitaria [23]): 64%
Activity (Amaranthus retroflexus [24]): Active
inhibition at 1 µg/mL (Spirodela polyrhiza [25]): 80%
Activity (Amaranthus retroflexus [26]): Active
Activity (Amaranthus retroflexus [27]): Active
Activity (Amaranthus retroflexus [28]): Active
Activity [29]: Active
inhibition of growth at 750 g/ha [30]: 94%
inhibition of growth at 15 g/ha [31]: 94%
inhibition of growth at 750 g/ha (Amaranthus retroflexus [32]): 100%
inhibition of growth at 75 g/ha (Amaranthus retroflexus [33]): 88%
inhibition of growth at 75 g/ha [34]: 100%
inhibition of growth at 300 g/ha [35]: 100%
Activity (Amaranthus retroflexus [36]): Active
inhibition of growth at 750 g/ha (Digitaria [37]): 93%
inhibition of growth at 60 g/ha (Amaranthus retroflexus [38]): 51%
Activity (Amaranthus retroflexus [39]): Active
inhibition of growth at 600 g/ha [40]: 100%
Activity [41]: Active
Activity [42]: Active

Cc1cc(-c2cccc(C(F)(F)F)c2)c(Oc2ccc(C#N)cc2)nn1
inhibition of growth at 150 g/ha [1]: 95%
Activity [2]: Active
inhibition of growth at 300 g/ha (Amaranthus retroflexus [3]): 100%
inhibition of growth at 30 g/ha (Amaranthus retroflexus [4]): 38%
inhibition of growth at 60 g/ha [5]: 89%
Activity [6]: Active
Activity [7]: Active
Activity [8]: Active
inhibition of growth at 750 g/ha (Echinochloa crus-galli [9]): 91%
inhibition of growth at 7.5 g/ha [10]: 41%
inhibition of growth at 750 g/ha (Echinochloa crus-galli [11]): 83%
inhibition of growth at 750 g/ha (Amaranthus retroflexus [12]): 99%
inhibition of growth at 15 g/ha (Amaranthus retroflexus [13]): 37%
inhibition at 10 µg/mL (Spirodela polyrhiza [14]): 93%
Activity (Amaranthus retroflexus [15]): Active
Activity (Amaranthus retroflexus [16]): Active
inhibition of growth at 7.5 g/ha (Amaranthus retroflexus [17]): 34%
Activity [18]: Active
inhibition of growth at 600 g/ha (Amaranthus retroflexus [19]): 100%
inhibition of growth at 750 g/ha [20]: 100%
inhibition of growth at 150 g/ha (Amaranthus retroflexus [21]): 100%
inhibition of growth at 30 g/ha [22]: 57%
inhibition of growth at 750 g/ha (Digitaria [23]): 99%
Activity (Amaranthus retroflexus [24]): Active
inhibition at 1 µg/mL (Spirodela polyrhiza [25]): 87%
Activity (Amaranthus retroflexus [26]): Active
Activity (Amaranthus retroflexus [27]): Active
Activity (Amaranthus retroflexus [28]): Active
Activity [29]: Active
inhibition of growth at 750 g/ha [30]: 96%
inhibition of growth at 15 g/ha [31]: 47%
inhibition of growth at 750 g/ha (Amaranthus retroflexus [32]): 100%
inhibition of growth at 75 g/ha (Amaranthus retroflexus [33]): 99%
inhibition of growth at 75 g/ha [34]: 90%
inhibition of growth at 300 g/ha [35]: 98%
Activity (Amaranthus retroflexus [36]): Active
inhibition of growth at 750 g/ha (Digitaria [37]): 99%
inhibition of growth at 60 g/ha (Amaranthus retroflexus [38]): 42%
Activity (Amaranthus retroflexus [39]): Active
inhibition of growth at 600 g/ha [40]: 99%
Activity [41]: Active
Activity [42]: Active
